# Test results published in US20130071936A1, “FRET-BASED ZINC(II) ION INDICATOR” (The Florida State University Research Foundation, Inc., priority 2011, published 2013).
# Values joined by “and” are separate entries in the source; they are usually repeats but may differ in a detail not shown here. Identical values can stand only once. Marks after values point to notes of the source that are not given here.
# Columns and labels:
# [1] = system: mitochondria of HeLa (S3) cells transfected with mCerulean3 TOMM-20; assay: Colocalization by confocal fluorescence microscopy with mCerulean3 TOMM-20; type: cell-based
# Experimental: FIGS. 13A through 13F are confocal fluorescence images of living HeLa (S3) cells transfected with mCerulean3 TOMM-20 that were incubated with zinc(II) ion indicator (5) (1.8 μM, A-C) and zinc(II) ion indicator (4) (6.0 μM, D-F) for 30 min. FIGS. 13A (zinc(II) ion indicator (5)) and 13D (zinc(II) ion indicator (4)) depict the green channel, λex 405 nm, λem 425-475 nm. FIGS. 13B (zinc(II) ion indicator (5)) and 13E (zinc(II) ion indicator (4)) depict the red channel, λex 543 nm, λem 580-680 nm. FIGS. 13C (zinc(II) ion indicator (5)) and 13F (zinc(II) ion indicator (4)) depict the merged image. Scale bar: 10 μm.
# FIGS. 14A through 14F are confocal fluorescence images of live HeLa (S3) cells transfected with mCer3 TOMM20 that were incubated with FRET acceptor compound (3) (9.0 μM, A-C) and FRET acceptor compound (2) (52 μM, D-F) for 30 min. FIGS. 14A (FRET acceptor compound (3)) and 14D (FRET acceptor compound (2)) depict the green channel, λex 405 nm, λem 425-475 nm. FIGS. 14B (FRET acceptor compound (3)) and […] (FRET acceptor compound (2)) depict the red channel, λex 543 nm, λem 580-680 nm. FIGS. 14C (FRET acceptor compound (3)) and […] (FRET acceptor compound (2)) depict the merged image. Scale bar: 10 μm.
# The colocalization properties of red-emitting compounds (2-5) were studied using HeLa (S3) cells transfected with mCerulean3 TOMM-20, a cyan fluorescent protein (CFP) fused with a mitochondrial targeting sequence whose emission is shown in the green channel. See FIG. 13A for emission spectrum from cells incubated with TPP-containing zinc(II) ion indicator (5), and see FIG. 13D for emission spectrum from cells incubated with zinc(II) ion indicator (4). […] The overall intracellular fluorescence intensity from zinc(II) ion indicator (4) is low, which is consistent with the observed weak fluorescence of the NDI fluorophore in aqueous solutions.
# The localization properties of (2-5) were determined via costaining experiments using mCerulean3 TOMM-20, a mitochondrial-specific fusion of the cyan fluorescent protein (CFP) mCerulean3. mCerulean3 is a bright monomeric FP with an emission maximum of 475 nm. HeLa S3 cells were seeded onto Bioptechs Delta-T dishes 48 h prior to experimentation, then transfected about 24 h prior to loading the indicator using an Effectene Transfection Reagent Kit (Qiagen) and 1 μg of DNA. A 1:1 mixture of Dulbecco's modified Eagle's medium and Ham's F-12 (Invitrogen) supplemented with 12.5% fetal bovine serum was used as the culture medium. On the day of experimentation cells were rinsed twice with media and incubated with indicator 5 (1.8 μM) for 30 min. Prior to imaging cells were again rinsed twice with media, then provided with 1 mL of fresh media.
# All cells were imaged using an Olympus Fluoview FV1000 confocal laser scanning microscope with an Olympus PLAPO 60× oil-immersion objective (NA=1.4). During experimentation cells were maintained at 37° C. and 5.0% CO2 using a Bioptechs Delta T4 Culture Dish Controller. Individual cells were imaged sequentially in two channels, using a 543 nm Helium-Neon laser line to excite the indicator and a 405 nm diode laser line to excite the FP. Cells were selected by the quality of FP expression, as the indicators tended to load homogenously into the cells. All data was collected using FluoView Software (Olympus). Laser power and detection settings were optimized for each image to fill LUTs. A pinhole size of 200 μm was used for each image. […]
# [2] = Spectroscopic data (absorption, emission, fluorescence quantum yield) in CH3CN; type: physicochemical
# Experimental: Reagents and solvents were purchased from various commercial sources and used without further purification unless otherwise stated. CH3CN (OmniSolv, EMD) were directly used in titration experiments without purification. All reactions were carried out in oven- or flame-dried glassware. Analytical thin-layer chromatography (TLC) was performed using pre-coated TLC plates with silica gel 60 F254 (EMD) or with aluminum oxide 60 F254 neutral (EMD). Flash column chromatography was performed using 40-63 μm (230-400 mesh ASTM) silica gel (EMD) or alumina (80-200 mesh, pH 9-10, EMD) as the stationary phases. Silica and alumina gel was flame-dried under vacuum to remove absorbed moisture before use. ^1H NMR spectra were recorded at 300 MHz on a Varian Mercury spectrometer. ^13C NMR spectra were recorded at 125 MHz, on a Bruker Avance spectrometer. All chemical shifts were reported in δ units relative to tetramethylsilane. High resolution mass spectra were obtained at the Mass Spectrometry Laboratory at Florida State University. ESI spectra were obtained on a JEOL AccuTOF spectrometer. Spectrophotometric and fluorometric titrations were conducted on a Varian Cary 100 Bio UV-Visible Spectrophotometer and a Varian Cary Eclipse Fluorescence Spectrophotometer, respectively, with a 1-cm standard quartz cell. The fluorescence quantum yield was determined by comparison of the integrated area of corrected emission spectrum with reference of N,N′-di-n-octyl-2,6-di-n-octylamino-1,4,5,8-naphthalenetetracarboxylic acid diimide (φf=0.53 in CH2Cl2) as the reference by the literature method. See Thalacker, C.; Röger, C.; Würthner, F. J. Org.
smiles,measurement,setting,value
COCCCNc1cc2c3c(c(NCCOc4ccc(/C=C/c5ccc(-c6ccc(COCCOCCOC)cn6)nc5)cc4)cc4c3c1C(=O)N(CCCOC)C4=O)C(=O)N(CCCOC)C2=O [Compound (4)],intracellular appearance,"[1]; 6.0 μM, 30 min",forms particulates intracellularly
same,colocalization with mitochondrial CFP (mCerulean3 TOMM-20),"[1]; 30 min incubation, (5) 1.8 μM, (4) 6.0 μM, (3) 9.0 μM, (2) 52 μM",poor colocalization with the CFP
same,overall intracellular fluorescence intensity,"[1]; red channel λex 543 nm, λem 580-680 nm",low
same,λabs (A band),[2]; complexes: Zn(ClO4)2 10 equiv.,600 nm and 600 (A) nm
same,λabs (D band),[2]; complexes: Zn(ClO4)2 10 equiv.,346 nm and 346 (D) nm
same,λem,[2]; complexes: Zn(ClO4)2 10 equiv.,633 nm
same,∈/10^3 (A band),[2]; complexes: Zn(ClO4)2 10 equiv.,22 10^3 M^-1 cm^-1
same,∈/10^3 (D band),[2]; complexes: Zn(ClO4)2 10 equiv.,76 10^3 M^-1 cm^-1
same,φf,[2]; λex = 565 nm,0.41^c
